According to ChEMBL document CHEMBL1133794, “3-p-Toluoyl-2-[4'-(3-diethylaminopropoxy)-phenyl]-benzofuran and 2-[4'-(3-diethylaminopropoxy)-phenyl]-benzofuran do not act as surfactants or micelles when inhibiting the aggregation of beta-amyloid peptide” (Bioorg Med Chem Lett, 2001):

What was measured:
[1] = Inhibitory concentration required to inhibit aggregation of 50 uM beta-amyloid 1-40 peptide by 50% over 24 hr r incubation, 37 degree C; assay type: functional
[2] = Critical micelle concentration determined by micellar/surfactant based mechanism; assay type: functional

IC50 [1]	SMILES	Critical micelle concentration [2]
78 µM	CCN(CC)CCCOc1ccc(-c2cc3ccccc3o2)cc1	220 µM
20 µM	CCN(CC)CCCOc1ccc(-c2oc3ccccc3c2C(=O)c2ccc(C)cc2)cc1	225 µM
